Data on 24 compounds can be found in patent publication US4888353A, “Carboxamides useful as antiemetic or antipsychotic agents” (Erbamont, Inc., priority 1986, dated 1989).

Each structure is given as a SMILES string. Where two headings read alike, the source gives them in different places.

The test system of series [1] is dopamine receptors. The conditions noted are these: cited from earlier work.
In series [2] the test system is apomorphine induced climbing behavior. Briefly: Antipsychotic screen: apomorphine induced climbing behavior. In kind it is in vivo. The settings on record: mouse, apomorphine 1 mg/kg, observed 20 minutes after; for ED50: 20 min, read-out: Approx. 50% ED, apomorphine climbing. The protocol:
The effect of each of the benzofurancarboxamides shown in Table VIII below on apomorphine induced climbing behavior was tested under the conditions described by Costetin et al. "Rapid and Dissociated Changes in Sensitivities of Different Dopamine Receptors in Mouse Brain," Nature, 257, 405 (1975). Each mouse was administered from 0.1 to 50 mg/kg of test compound and antagonism was observed 20 minutes after injection of 1 mg/kg apomorphine induced climbing behavior.

For series [3], the system named is apomorphine emesis. The series can be described thus: Antiemetic screen: Apomorphine Emesis (Dog). The class given is in vivo, Beagle dogs. The conditions noted are these: s.c., apomorphine HCl 0.1 mg/kg sc one hour after test compound, 2 dogs; for ED100: Canis lupus familiaris, sc, 1 h, read-out: 100% Effect Dosage level (dosage at which both animals were protected from apomorphine emesis). Here is the method:
Each of the test compounds shown in Table VIII was administered subcutaneously to two Beagle dogs at dosage levels of 0.05, 0.1, 1.0 and 10.0 mg/kg. One hour following administration of the test compound, each animal received 0.1 mg/kg, sc, of apomorphine HCl. Apomorphine consistently evokes an immediate emetic response through direct dopaminergic interaction at the medullary chemoreceptor trigger zone (CTZ). Antiemetic compounds which act at the CTZ and/or the midbrain vomiting center will block this effect. If both animals receiving a particular treatment are protected, (i.e., no emetic response within one hour after apomorphine), the test compound is considered active.

The mark [4] stands for this setting: oral (marked in cell; head prints s.c.).
The mark [5] stands for this setting: ip, i.p. (marked in cell; head prints s.c.).

Take `CCN(CC)CCNC(=O)c1cc(Cl)c(N)cc1OC` [metoclopramide, 4-amino-5-chloro-N-[(2-diethylamino)ethyl]-2-methoxybenzamide]: the “release of prolactin (side effect)” value in series [1] is “increase in the release of prolactin”. Regarding `CCN1CCCC1CNC(=O)c1cc(Cl)c(Cl)c2c1OC(C)C2` (centres unmarked) [drawing 99 R = Cl R' = Cl], the ED50 in series [2] (setting [4]) was around 10 mg/kg. As to `CCN1CCCC1CNC(=O)c1cc(C)cc2c1OCC2.Cl` (centres unmarked) [drawing 98 R = CH3, N-(1-ethyl-2-pyrrolidinylmethyl)-5-methyl-2,3-dihydrobenzo[b]furan-7-carboxamide hydrochloride], the ED50 in series [2] (setting [5]) was around 3 mg/kg. The ED100 in series [3] stood at 0.1 mg/kg. With `CCN1CCCC1CNC(=O)c1cc([N+](=O)[O-])cc2c1OCC2` (centres unmarked) [drawing 98 R = NO2, N-(1-ethyl-2-pyrrolidinylmethyl)-5-nitro-2,3-dihydrobenzo[b]furan-7-carboxamide], the ED50 in series [2] (setting [4]) is around 15 mg/kg; in series [2] (setting [5]), around 20 mg/kg. In series [3], the ED100 is 1 mg/kg.

On to `CCN1CCCC1CNC(=O)c1cc(NS(C)(=O)=O)cc2c1OCC2` (centres unmarked) [drawing 98 R = NHSO2 CH3, N-(1-ethyl-2-pyrrolidinylmethyl)-5-methanesulfonamido-2,3-dihydrobenzo[b]furan-7-carboxamide], for which the ED50 in series [2] (setting [4]) is around 50 mg/kg. Also, in series [3], the ED100 amounted to 1 mg/kg. On to `CCN1CCCC1CNC(=O)c1cc(Cl)cc2ccoc12.O=C(O)/C=C/C(=O)O` (centres unmarked) [drawing 105 R = Cl R' = H, 5-chloro-N-(1-ethyl-2-pyrrolidinylmethyl)benzo[b]furan-7-carboxamide fumarate], for which, in series [2] (setting [4]), the ED50 was around 5 mg/kg. Moreover, the ED100 in series [3] stood at 0.1 mg/kg.

`CCN1CCCC1CNC(=O)c1cccc2ccoc12` (centres unmarked) [drawing 97 R = H]: in series [2] (setting [5]), the ED50 was around 12 mg/kg. In addition, the ED100 in series [3] stood at 10 mg/kg. As for `CCN1CCCC1CNC(=O)c1ccc(OC)c2c1OC(C)C2` (centres unmarked) [drawing 99 R = H R' = OCH3], in series [2] (setting [4]), the ED50 is around 25 mg/kg. In the case of `CCN1CCCC1CNC(=O)c1ccc(Cl)c2c1OC(C)C2.O=C(O)/C=C/C(=O)O` (centres unmarked) [drawing 99 R = H R' = Cl, 4-chloro-N-(1-ethyl-2-pyrrolidinylmethyl)-2-methyl-2,3-dihydrobenzo[b]furan-7-carboxamide fumarate], the ED50 was around 40 mg/kg in series [2] (setting [4]) and around 25 mg/kg in series [2] (setting [5]). With `CCN1CCCC1CNC(=O)c1cccc2c1OC(C)C2` (centres unmarked) [drawing 109 R1 = H,R2 = CH3], the “Approx. 50% ED, apomorphine climbing” value in series [2] (i.p. (marked in cell; head prints s.c.)) is on record as around 20 mg/kg. In addition, the “100% Effect Dosage level (dosage at which both animals were protected from apomorphine emesis)” value in series [3] is on record as 0.85 mg/kg.

In the case of `CCN1CCCC1CNC(=O)c1cccc2cc(C)oc12` (centres unmarked) [drawing 97 R = CH3], in series [2] (setting [5]), the ED50 was around 3 mg/kg. The ED100 in series [3] came to 10 mg/kg.

In the case of `CCN1CCCC1CNC(=O)c1cccc2c1OC(C)(C)C2` (centres unmarked) [drawing 109 R1 = R2 = CH3], the ED50 in series [2] (setting [5]) is around 100 mg/kg. Further, in series [3], the ED100 is 10 mg/kg.

As for `CCN1CCCC1CNC(=O)c1cccc2c1OCC2` (centres unmarked) [drawing 98 R = H], the ED50 in series [2] (setting [5]) is around 20 mg/kg. Further, in series [3], the ED100 stood at 1 mg/kg.

Turning to `CCN1CCCC1CNC(=O)c1cc(OC)cc2c1OC(C)C2` (centres unmarked) [drawing 99 R = OCH3 R' = H], the ED50 in series [2] (setting [4]) was around 1 mg/kg; in series [2] (setting [5]), around 25 mg/kg. Further, in series [3], the ED100 stood at 0.1 mg/kg.

Take `CCN1CCCC1CNC(=O)c1cc(S(N)(=O)=O)ccc1OC` (centres unmarked) [sulpiride, 2-methoxy-N-(1-ethyl-2-pyrrolidinylmethyl)-5-sulfamoyl benzamide]: the “release of prolactin (side effect)” value in series [1] was “increase in the release of prolactin”. For `CCN1CCCC1CNC(=O)c1cc(N)cc2c1OCC2.O=C(O)/C=C/C(=O)O` (centres unmarked) [drawing 98 R = NH2, 5-amino-N-(1-ethyl-2-pyrrolidinylmethyl)-2,3-dihydrobenzo[b]furan-7-carboxamide fumarate], the ED50 in series [2] (setting [4]) is around 20 mg/kg; in series [2] (setting [5]), around 25 mg/kg. For the compound `CCN1CCCC1CNC(=O)c1cc(F)cc2ccoc12` (centres unmarked) [drawing 105 R = F R' = H], in series [3], the ED100 was 1 mg/kg. For the compound `CCN1CCCC1CNC(=O)c1cc(Br)cc2c1OC(C)C2` (centres unmarked) [drawing 99 R = Br R' = H], the ED50 in series [2] (setting [5]) is around 2 mg/kg. The ED100 in series [3] stood at 0.005 mg/kg. As to `CCN1CCCC1CNC(=O)c1cc(NC(C)=O)cc2c1OCC2.O=C(O)/C=C/C(=O)O` (centres unmarked) [drawing 98 R = NHCOCH3, 5-acetamido-N-(1-ethyl-2-pyrrolidinylmethyl)-2,3-dihydrobenzo[b]furan-7-carboxamide fumarate], the ED50 in series [2] (setting [5]) is around 50 mg/kg. Turning to `CCN1CCCC1CNC(=O)c1cc(Br)cc2ccoc12` (centres unmarked), the ED50 in series [2] (setting [5]) is around 0.5 mg/kg. The ED100 in series [3] worked out at 0.1 mg/kg. Turning to `CCN1CCCC1CNC(=O)c1cc(Br)cc2c1OCC2` (centres unmarked) [drawing 98 R = Br], the ED50 in series [2] (setting [4]) was around 15 mg/kg. Moreover, in series [3], the ED100 worked out at 1 mg/kg. Consider `CCN1CCCC1CNC(=O)c1cc(Cl)cc2c1OCC2` (centres unmarked) [drawing 98 R = Cl], for which the values for the ED50 in series [2] (setting [4]) and in series [2] (setting [5]) were around 15 mg/kg and around 5 mg/kg, respectively. In addition, the ED100 in series [3] stood at 1 mg/kg.

`O=C(NC1CCN(Cc2ccccc2)C1)c1cc(Br)cc2ccoc12` (centres unmarked): the ED50 in series [2] (setting [5]) is around 30 mg/kg.

On to `CCN1CCCC1CNC(=O)c1cccc2c1OC(C)C2` (centres unmarked) [drawing 99 R = H R' = H], for which the ED50 in series [2] (setting [5]) is around 20 mg/kg. The “100% Effect Dosage level (dosage at which both animals were protected from apomorphine emesis)” value in series [3] is listed as 0.05 mg/kg.
